Source: patent US20100093609A1, “PRODRUGS OF TRICIRIBINE AND TRICIRIBINE PHOSPHATE” (priority 2007, published 2010)

Key:
[1] = test system: HFF cells
[2] = Systemic plasma concentrations after duodenal administration to rats; conditions: rat, duodenal administration of 3 mg
[3] = in vitro; conditions: human
[4] = Stability in 100 mM phosphate buffer, pH 6.5; conditions: pH 6.5, 37° C., 0-3 hours, LC/MS/MS

Q: For `CN1N=C(N)c2cn([C@@H]3O[C@H](COP(=O)(O)O)[C@@H](O)[C@H]3O)c3ncnc1c23` [TCNP, 6-amino-4-methyl-8-(beta.-D-ribofuranosyl)pyrrolo[4,3,2-de]pyrimido[4,5-c]pyridazine 5′ phosphate], which “cytotoxic effects (in words)” value [1] is on record?
A: more toxic than TCN

Q: And the “intestinal absorption / plasma levels (in words)” value [2]?
A: very little intestinal absorption

Q: What about the peak plasma levels ([2]; FIGS. 5 and 6) of the same compound?
A: about 1.25 ng/ml

Q: And the “AUC0-4 hr of the administered compound (parent or intact prodrug)” value ([2]; plasma over 4 hours)?
A: 4.4 ± 0.9 (ng/ml)/hr

Q: And the IC50 at 8 days [3]?
A: 32 µM

Q: What about the “stability in buffer (in words)” value [4] of the same compound?
A: stable
